In patent US20260294906A1, “TREATING PSORIASIS USING A SMALL MOLECULE INHIBITOR OF TUMOR NECROSIS FACTOR ALPHA” (SANOFI, priority 2023, published 2026):
Values joined by “and” are separate entries in the source; they are usually repeats but may differ in a detail not shown here. Equal entries are not always repeated. “Also recorded” adds a separate entry of the source.

Experiments:
[1] = system: patients with mild to moderate psoriasis; assay: Clinical response by Target Lesion Severity (TLS) score, phase 1 placebo-controlled study; format: in vivo, human; conditions: for Mean (±SEM) % improvement from baseline in TLS score / ΔLSm (±SE) (Compound 1 minus placebo) in % improvement from baseline in TLS score: 200 mg BID; for LSm (±SE) % improvement from baseline in TLS score: 200 mg BID oral, fed, average of 2 lesions; for LSm (±SE) % improvement from baseline in TLS score / ΔLSm (±SE) (Compound 1 minus placebo) in % improvement from baseline in TLS score: MMRM
Method: A double-blind, randomized, placebo-controlled phase 1 study was carried out in participants with mild to moderate psoriasis. Study participants were randomized to 200 mg twice a day (BID) of Compound 1 or placebo in 2:1 ratio (approximately 24 in the treatment group and 12 in the placebo group). The study comprised an up to 4-week screening period, and a 4-week treatment period with Compound 1 or placebo. An end-of-study visit was carried out 10±3 days after the last investigational medicinal product (IMP) administration.
The primary objective of the study was to assess the safety, tolerability, and clinical efficacy of Compound 1 at 200 mg BID via oral administration. Also evaluated was the clinical effect of Compound 1 as compared to placebo on the percent change in PASI and TLS scores from baseline to week 2 and week 4. The percent change in PASI score from baseline to week 4 was determined. TLS score was also assessed over the same time period. Also assessed was the effect of Compound 1 on biomarkers of psoriasis. Blood samples collected at predetermined time points were processed to quantify serum levels of biomarkers, including interleukin (IL)-17A, IL-17F, and IL-22 by high sensitivity methods. IL-17A, IL-17F and IL-22 are the main cytokines released by Th17 cells. Plasma levels of Compound 1 were measured to assess pharmacokinetics in the study population.
(§1) Two study interventions were used, Compound 1 and placebo. The Compound 1 intervention comprised 4× tablets of Compound 1 50 mg twice daily, i.e. 200 mg BID, for 4 weeks. The placebo intervention was 4× tablets of placebo twice daily for 4 weeks. Tablets were administered orally.
The interventions were used in two arms of the study. Arm 1 was the experimental arm and it involved participants receiving 200 mg of Compound BID for 4 weeks under fed conditions. Arm 2 was the placebo arm and it involved participants receiving the matching placebo tablets for 4 weeks under fed conditions.
TLS score, which is a validated tool for psoriasis severity assessment, was used to evaluate severity and to assess clinical efficacy. It consists of a sum score of 3 clinical severity parameters (scaling, erythema, plaque elevation/induration; each graded on a 5-point severity scale; 0=clear, 1=slight, 2=mild, 3=moderate, and 4=severe) with a sum score ranging between 0 and 12 points (see, e.g., Czamowicki et al., J Am Acad Dermatol. (2014) 71(5):954-959.e1). The following assessment was used, in which TLS score was calculated as the sum of A+B+C (adapted from Fredriksson et al., Dermatologica (1978) 157(4):238-244):
The TLS score was assessed at baseline, 2 weeks and 4 weeks. Table 2 below presents the Least Square means (LSm)±Standard Error (SE) for each treatment and the Least Squares means difference (ΔLSm; Compound 1 minus placebo)±Standard Error (SE) with 90% confidence interval (CI) in percentage improvement from baseline in the TLS score (calculated as the average of the TLS score values collected from 2 lesions) at week 2 and week 4.
The results in Table 2 were obtained using the Mixed Model for Repeated Measures (MMRM).
Table 3 below presents the mean (±SEM) percentage improvement from baseline in the TLS score (calculated as the average of the TLS score values collected from 2 lesions) at week 2 and week 4 in the patient population with PASI<10 (mild) or PASI≥10 (moderate) at baseline.
The results in Table 3 come from standard descriptive analysis, ^(1)N=3, ^(2)N=15

[2] = system: participants with mild to moderate psoriasis; assay: 12-lead ECG (QTcF) in the clinical study; format: in vivo, human
Method: as §1
The following electrocardiogram data were recorded: • Standard 12-lead ECGs (safety ECGs) were recorded after at least 10 minutes in supine position using an electrocardiographic device. The electrodes were positioned at the same place for each ECG recording throughout the study (e.g., attachment sites of the leads were visualized on a transparent paper). • Triplicate ECGs were recorded within 5 minutes with at least 1 min between 2 replicates for all ECG. • Each ECG consisted of a 10-second recording of the 12 leads simultaneously, leading to: • A single 12-lead ECG (50 mm/s, 10 mm/mV) printout with heart rate, PR, QRS, QT, QTc automatic correction evaluation (by the ECG device), including date, time, and number of the participant, signature of the research physician, and at least 3 complexes for each lead. The Investigator's medical opinion and automatic values were recorded in the eCRF. This printout was retained at the site. A second printout was performed also, if needed. • A digital storage that enables eventual further reading by an ECG central laboratory: each digital file will be identified by theoretical time (day and time Dxx Txx Hxx), real date and real time (recorder time), Sponsor study code, participant number (i.e., 3 digits), and site and country numbers, if relevant. The digital recording, data storage, and transmission (whenever requested) need to comply with all applicable regulatory requirements (i.e., FDA 21 code of federal regulations [CFR], Part 11).
For AESI in this study, the Sponsor was to be informed immediately (i.e., within 24 hours), as per SAE notification guidelines, even if a seriousness criterion was not met, using the corresponding screens in the eCRF. • ALT increased >3×ULN. • QT prolongation (QTcF≥500 milli seconds [ms]) and/or a delta QTc change from baseline>60 ms (12-lead ECG). In the event of prolongation of QTc interval (automatic measurement)≥500 ms, confirmed by a manual reading by the Investigator or a physician delegated by the Investigator using the Fridericia formula for correcting QT, the participant was placed under supervision in a specialized setting. Investigational medicinal product administration was stopped, and appropriate blood samples collected. Subsequent ECG monitoring of the participant was then performed on a regular and clinically responsible basis until the QTc interval returned to a safe value as determined by the Investigator in agreement with the Sponsor. • Photosensitivity (Grade 2 and above AE due to sun exposure). • Pregnancy. • Symptomatic overdose. • An overdose (accidental or intentional) with the IMP is an event suspected by the Investigator or spontaneously notified by the participant (not based on systematic pills count) and defined as at least twice the intended dose within the intended therapeutic interval, adjusted according to the tested drug.

CN1C(=O)c2cccc(OC(F)F)c2[C@H]2C[C@@H]1c1nc3ccc(-c4cnc(C5(N)CCC5)nc4)cc3n12 [Compound 1, (7R,14R)-11-[2-(1-aminocyclobutyl)pyrimidin-5-yl]-1-(difluoromethoxy)-6-methyl-6,7-dihydro-7,14-methanobenzimidazo[1,2-b][2,5]benzodiazocin-5(14H)-one]
Mean (±SEM) % improvement from baseline in TLS score ([1]; PASI < 10 (mild) population, week 2, N = 16, SEM 3.61): 20.9% | Mean (±SEM) % improvement from baseline in TLS score ([1]; PASI < 10 (mild) population, week 4, N = 15, SEM 6.32): 37.0% | Mean (±SEM) % improvement from baseline in TLS score ([1]; PASI ≥ 10 (moderate) population, week 2, N = 9): 10.9% and 10.9 (6.20) % | Mean (±SEM) % improvement from baseline in TLS score ([1]; PASI ≥ 10 (moderate) population, week 4, N = 9): 39.7% and 39.7 (4.03) % | LSm (±SE) % improvement from baseline in TLS score ([1]; week 2, vs placebo 6.29%, p=0.032): 17.06% and 17.06 (3.13) % | ΔLSm (±SE) (Compound 1 minus placebo) in % improvement from baseline in TLS score ([1]; week 2, 90% CI 1.29 to 20.26): 10.77% and 10.77 (5.61) % | LSm (±SE) % improvement from baseline in TLS score ([1]; week 4, vs placebo 20.44%, p=0.012): 38.18% and 38.18 (4.33) % | ΔLSm (±SE) (Compound 1 minus placebo) in % improvement from baseline in TLS score ([1]; week 4, 90% CI 4.98 to 30.49): 17.7% and 17.74% and 17.74 (7.54) % | mean reduction in TLS score from baseline ([1]; week 4, FIG. 1, placebo around 1.25 points): around 2.5 points | QTcF change from baseline >60 msec and/or QTcF>480 msec ([2]; 200 mg BID): no QTcF change from baseline >60 msec and/or QTcF>480 msec | QTcF change from baseline, one participant ([2]; 200 mg BID, Day 8, baseline 426 msec): 33 ms | Number of participants with QTcF>450 msec ([2]; 200 mg BID, one single occasion on Day 8): One | QTcF, one participant ([2]; 200 mg BID, one single occasion on Day 8, baseline 426 msec): 459 ms | risk of QTc prolongation / impact on cardiac parameters (in words) ([2]; 4-week clinical trial): No indication for risks on QTc prolongation was observed; also recorded: neither was any significant impact on cardiac parameters (e.g., QTcF interval)
